PMC5908295 (Oncotarget, 2018)

Key:
PIM1 = PIM1 (Homo sapiens, UniProt P11309); test: KINOMEscan Kd (DiscoverX); assay type: binding
PIM3 = PIM3 (Homo sapiens, UniProt Q86V86); test: KINOMEscan Kd (DiscoverX); assay type: binding
[1] = Metabolic stability, liver S9 fraction; assay type: in vitro ADME; settings: Dog, 37 °C, read-out: Liver S9 fraction t1/2 (converted)
[2] = Metabolic stability, liver microsomes; assay type: in vitro ADME; settings: Dog, 37 °C, read-out: Liver microsomes t1/2 (converted)
[3] = Metabolic stability, liver microsomes; assay type: in vitro ADME; settings: Human, 37 °C, read-out: Liver microsomes t1/2 (converted)
CYP2C9 = biological target: T1, CYP2C9 (Homo sapiens, UniProt P11712); test: CYP isoforms inhibition; assay type: in vitro ADME; settings: 5-dose, 3-fold dilution starting at 30 µM
T1 construct: Cambridge Bioscience Limited (ran the assay)
Procedure: or absence of enzyme cofactors. The assay was performed microsomes. (Supplementary Table 7).
with the respective reference samples (i.e. without measured at Cambridge Bioscience Limited (except
cofactors). After incubation, drug transformation by liver CYP1A2 inhibition which was measured in-house). […]
The analysis of two standard compounds (i.e. positive a very weak potential for CYP inhibition with IC50
and negative controls) was included. […]

MOLM-16 (FLT3-WT) tumor = test: MOLM-16 subcutaneous xenograft, single agent; assay type: in vivo, SCID/beige mice
Description: All animals were handled in strict accordance with good animal practice as defined by the relevant national and local animal welfare bodies. SCID and SCID/beige C.B-17 mice were provided by Harlan Laboratories or Charles River Laboratories, and were maintained in pathogen free conditions. For the xenograft experiments, age-matched (9-11 weeks old) females were used. 5×10^6 of MV-4-11 or MOLM-16 cells were suspended in a mixture (1:1, v:v) of PBS with Matrigel (BD Biosciences,) and injected subcutaneously (sc), in a total volume of 100 μL, above the groin on the right hind limb. For MOLM-13 and KG-1 cells, a mixture (3:1, v:v) of PBS and Matrigel HC (BD Bioscience,) was used to inject 5 × 10^6 of cell per mouse subcutaneously (sc), in a total volume of 100 μL. When tumors reached 100-130 mm^3, mice were randomized into uniform groups (6-9 mice per group) and subsequently administered the compound. […] At the end of the experiment, mice were anesthetized with isofluran and blood samples for total cell counts and biochemistry were obtained by retro-orbital bleeding. […] 5×10^6 cells suspended in a mixture (3:1, v:v) of PBS and Matrigel were injected as described above. When the tumor volume reached ~120 mm^3, mice were randomized into uniform groups (5 mice per group) and the compound then administered. […] Tumor volume was monitored every second day and calculated using the formula: TV = (a^2×b)/2, where “a” is the short axis in millimeters, and “b” is the long axis in millimeters. Body weight was assessed every day.

[4] = Total blood cell counts in mice with MV-4-11 tumors; settings: treatment day 15
Description: All animals were handled in strict accordance with good animal practice as defined by the relevant national and local animal welfare bodies. SCID and SCID/beige C.B-17 mice were provided by Harlan Laboratories or Charles River Laboratories, and were maintained in pathogen free conditions. For the xenograft experiments, age-matched (9-11 weeks old) females were used. 5×10^6 of MV-4-11 or MOLM-16 cells were suspended in a mixture (1:1, v:v) of PBS with Matrigel (BD Biosciences,) and injected subcutaneously (sc), in a total volume of 100 μL, above the groin on the right hind limb. For MOLM-13 and KG-1 cells, a mixture (3:1, v:v) of PBS and Matrigel HC (BD Bioscience,) was used to inject 5 × 10^6 of cell per mouse subcutaneously (sc), in a total volume of 100 μL. When tumors reached 100-130 mm^3, mice were randomized into uniform groups (6-9 mice per group) and subsequently administered the compound. […] At the end of the experiment, mice were anesthetized with isofluran and blood samples for total cell counts and biochemistry were obtained by retro-orbital bleeding. […] 5×10^6 cells suspended in a mixture (3:1, v:v) of PBS and Matrigel were injected as described above. When the tumor volume reached ~120 mm^3, mice were randomized into uniform groups (5 mice per group) and the compound then administered. […] Tumor volume was monitored every second day and calculated using the formula: TV = (a^2×b)/2, where “a” is the short axis in millimeters, and “b” is the long axis in millimeters. Body weight was assessed every day. […]
Supplementary Table 10: Related to Figure 5C. […] The assessment total
performed on treatment day 15.
RBC – red blood cells, HGB – hemoglobin, HCT – hematocrit, WBC – white blood cells, LYMPH – lymphocytes, MONO
– monocytes, GRA – granulocytes, PLT – platelet, MPV – mean platelet volume.

MOLM-13 = test: MTS viability assay, 72 h; settings: Homo sapiens, MOLM-13, 72 h
Procedure: (§1) 15-25 ×10^3 of MV-4-11, MOLM-13, MOLM-14, MOLM-16, KG-1, Eol-1, SKM-1, PL-21, GDM-1, SKNO-1, RS4;11, Kasumi-3 and Kasumi-6 cells were seeded in 150 μL of culture medium onto individual wells in a 96 well plates, in triplicates. On the same day, 50 μL of medium containing tested inhibitor was added to the wells. Each compound was tested at 8 concentrations, in triplicates. As a negative control, the medium containing 0.1% DMSO was used. […] Staurosporine was used at 10 μM as a positive control. One the day of drug addition, basal signal from untreated cells was measured from in triplicate to determine time zero (T0). […] GI50 and LC50 values were extrapolated from a variable (four-parameter) dose-response curve fitted in GraphPad Prism.

MOLM-16 = test: MTS viability assay, 72 h; settings: MOLM16, 72 h
Procedure: (§2) On the same day, 50 μL of medium containing tested inhibitor was added to the wells. Each compound was tested at 8 concentrations, in triplicates. As a negative control, the medium containing 0.1% DMSO was used. […] Staurosporine was used at 10 μM as a positive control. One the day of drug addition, basal signal from untreated cells was measured from in triplicate to determine time zero (T0). […] GI50 and LC50 values were extrapolated from a variable (four-parameter) dose-response curve fitted in GraphPad Prism.

KASUMI-3 = test: MTS viability assay, 72 h; settings: Kasumi-3, 72 h
Procedure: as §1

KASUMI-6 = test: MTS viability assay, 72 h; settings: 72 h
Procedure: as §1

SKM-1 = test: MTS viability assay, 72 h; settings: Homo sapiens, SKM-1, 72 h
Procedure: as §2

GDM-1 = test: MTS viability assay, 72 h; settings: Homo sapiens, GDM-1, 72 h
Procedure: as §1

PL-21 = test: MTS viability assay, 72 h; settings: PL-21, 72 h
Procedure: as §1

Chain of PIM1 (P11309 whole entry): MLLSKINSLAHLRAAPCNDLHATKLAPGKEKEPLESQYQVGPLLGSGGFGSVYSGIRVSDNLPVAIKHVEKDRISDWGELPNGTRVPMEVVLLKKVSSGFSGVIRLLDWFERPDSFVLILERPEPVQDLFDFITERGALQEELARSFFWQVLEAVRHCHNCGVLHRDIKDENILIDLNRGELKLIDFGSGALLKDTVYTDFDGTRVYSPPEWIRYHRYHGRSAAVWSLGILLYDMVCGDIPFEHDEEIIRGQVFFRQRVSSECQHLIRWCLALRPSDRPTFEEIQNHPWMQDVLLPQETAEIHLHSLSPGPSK
T1 sequence (P11712 whole entry, canonical isoform): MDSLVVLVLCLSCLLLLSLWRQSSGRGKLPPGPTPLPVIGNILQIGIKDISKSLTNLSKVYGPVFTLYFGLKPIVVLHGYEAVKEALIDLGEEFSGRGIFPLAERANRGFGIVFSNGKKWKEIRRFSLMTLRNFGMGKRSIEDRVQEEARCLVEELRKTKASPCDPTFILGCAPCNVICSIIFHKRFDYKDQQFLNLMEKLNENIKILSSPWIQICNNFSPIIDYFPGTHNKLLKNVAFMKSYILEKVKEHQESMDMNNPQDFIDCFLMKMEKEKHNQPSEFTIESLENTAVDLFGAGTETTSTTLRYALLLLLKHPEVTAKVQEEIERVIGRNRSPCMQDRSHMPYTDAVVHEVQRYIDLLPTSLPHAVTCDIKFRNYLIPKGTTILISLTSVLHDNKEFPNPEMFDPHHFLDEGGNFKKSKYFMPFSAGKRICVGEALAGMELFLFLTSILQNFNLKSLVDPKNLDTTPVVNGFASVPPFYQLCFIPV

CC(C)n1c(C2CCNCC2)nc2c([N+](=O)[O-])c(Br)c(Br)cc21 [SEL24-B489, 5,6-dibromo-4-nitro-2-(piperidin-4-yl)-1-(propan-2-yl)-1H-1,3-benzodiazole]
Kd (PIM1): 2 nM
Kd (PIM3): 3 nM
half-life at 1 µM [1]: 378 min
half-life at 1 µM [2]: 456 min
half-life at 1 µM [3]: 1270 min
IC50 (CYP2C9): > 150 µM
TGI (MOLM-16 (FLT3-WT) tumor; MOLM-16, 25 mg/kg BID): ~ 100%
TGI (MOLM-16 (FLT3-WT) tumor; MOLM-16, 50 mg/kg EOD): 79%
TGI (MOLM-16 (FLT3-WT) tumor; MOLM-16, 50 mg/kg QD): ~ 100%
GRA ([4]; SEL24-B489 25 mg/kg): 42.2%
HCT ([4]; SEL24-B489 25 mg/kg): 48.8%
HGB ([4]; SEL24-B489 25 mg/kg): 14.6 g/dL
LYMPH ([4]; SEL24-B489 25 mg/kg): 47.2%
MONO ([4]; SEL24-B489 25 mg/kg): 10.6%
MPV ([4]; SEL24-B489 25 mg/kg): 6.1 μm3
PLT ([4]; SEL24-B489 25 mg/kg): 1016 103/mm3
RBC ([4]; SEL24-B489 25 mg/kg): 9.8 106/mm3
WBC ([4]; SEL24-B489 25 mg/kg): 3.1 103/mm3
GRA ([4]; SEL24-B489 50 mg/kg): 49.1%
HCT ([4]; SEL24-B489 50 mg/kg): 47.4%
HGB ([4]; SEL24-B489 50 mg/kg): 14.4 g/dL
LYMPH ([4]; SEL24-B489 50 mg/kg): 40.3%
MONO ([4]; SEL24-B489 50 mg/kg): 10.5%
MPV ([4]; SEL24-B489 50 mg/kg): 5.7 μm3
PLT ([4]; SEL24-B489 50 mg/kg): 1286 103/mm3
RBC ([4]; SEL24-B489 50 mg/kg): 9.6 106/mm3
WBC ([4]; SEL24-B489 50 mg/kg): 4.9 103/mm3
GI50 (MOLM-13): 73 nM
CC50 (MOLM-13; read-out: LC50): 446 nM
GI50 (MOLM-16): 42 nM
CC50 (MOLM-16; read-out: LC50): 153 nM
GI50 (KASUMI-3): 633 nM
CC50 (KASUMI-3; read-out: LC50): 2330 nM
GI50 (KASUMI-6): 17 nM
GI50 (SKM-1): 732 nM
CC50 (SKM-1; read-out: LC50): 7.77 µM
GI50 (GDM-1): 680 nM
GI50 (PL-21): 1710 nM
